Data as given in the Kinase Knowledgebase extract (Sharma et al. 2016).

The molecules below were run against ROCK1;ROCK2 (UniProt O75116) (assay: Inhibition of ROCK Kinase Activity).
ROCK1;ROCK2, sequence (O75116 whole entry, looked up): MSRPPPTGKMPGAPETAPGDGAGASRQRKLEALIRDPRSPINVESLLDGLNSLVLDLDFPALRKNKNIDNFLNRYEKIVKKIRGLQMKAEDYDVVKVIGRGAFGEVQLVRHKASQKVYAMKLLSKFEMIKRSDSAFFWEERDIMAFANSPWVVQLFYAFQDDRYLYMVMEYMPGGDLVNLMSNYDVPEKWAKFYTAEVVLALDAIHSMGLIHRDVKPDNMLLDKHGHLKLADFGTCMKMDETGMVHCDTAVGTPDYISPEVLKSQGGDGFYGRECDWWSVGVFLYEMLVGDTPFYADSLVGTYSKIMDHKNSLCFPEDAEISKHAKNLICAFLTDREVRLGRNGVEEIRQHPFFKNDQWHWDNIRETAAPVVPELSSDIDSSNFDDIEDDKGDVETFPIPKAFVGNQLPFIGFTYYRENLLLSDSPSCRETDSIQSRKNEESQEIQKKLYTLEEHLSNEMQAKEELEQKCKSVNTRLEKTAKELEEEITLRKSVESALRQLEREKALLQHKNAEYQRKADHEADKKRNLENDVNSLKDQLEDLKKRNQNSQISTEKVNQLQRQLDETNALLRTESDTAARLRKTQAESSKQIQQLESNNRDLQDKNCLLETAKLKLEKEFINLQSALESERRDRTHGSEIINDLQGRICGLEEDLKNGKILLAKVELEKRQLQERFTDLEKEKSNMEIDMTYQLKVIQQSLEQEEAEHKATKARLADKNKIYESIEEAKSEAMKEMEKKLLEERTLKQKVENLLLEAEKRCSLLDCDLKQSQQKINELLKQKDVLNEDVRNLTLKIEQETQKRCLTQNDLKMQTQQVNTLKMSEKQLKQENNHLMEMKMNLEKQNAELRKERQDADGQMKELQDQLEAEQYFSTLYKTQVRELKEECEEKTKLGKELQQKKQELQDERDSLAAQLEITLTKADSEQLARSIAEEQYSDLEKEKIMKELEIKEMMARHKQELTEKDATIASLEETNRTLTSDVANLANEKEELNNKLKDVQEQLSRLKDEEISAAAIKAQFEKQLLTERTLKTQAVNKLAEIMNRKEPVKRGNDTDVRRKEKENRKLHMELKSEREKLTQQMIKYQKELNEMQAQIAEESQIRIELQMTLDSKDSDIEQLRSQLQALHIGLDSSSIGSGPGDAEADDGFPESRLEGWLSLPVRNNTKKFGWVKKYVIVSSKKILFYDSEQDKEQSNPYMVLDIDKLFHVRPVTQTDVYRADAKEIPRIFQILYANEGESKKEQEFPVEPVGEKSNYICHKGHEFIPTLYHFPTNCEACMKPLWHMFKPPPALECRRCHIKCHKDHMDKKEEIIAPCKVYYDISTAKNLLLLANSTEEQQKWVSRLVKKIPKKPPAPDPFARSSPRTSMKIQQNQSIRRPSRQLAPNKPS

Ki, ≤ 2000 nM:
O=C(Cc1ccccc1Cl)Nc1ccc2c(c1)C(=O)NC2=O, Cc1ccc(SCC(=O)Nc2ccc3c(c2)C(=O)NC3=O)cc1, O=C(CNc1cccc2c1CCCC2)Nc1ccc2c(c1)C(=O)NC2=O, O=C(Cc1cc2c(cc1Cl)OCO2)Nc1ccc2c(c1)C(=O)NC2=O, O=C(CSc1cccc(Cl)c1Cl)Nc1ccc2c(c1)C(=O)NC2=O, COc1cccc(OCC(=O)Nc2ccc3c(c2)C(=O)NC3=O)c1, Cc1ccc(SCC(=O)Nc2ccc3c(c2)C(=O)NC3=O)c(C)c1, O=C(Cc1ccc(F)cc1Cl)Nc1ccc2c(c1)C(=O)NC2=O, O=C(Cc1cccc(O)c1)Nc1ccc2c(c1)C(=O)NC2=O, O=C(CNc1cccc(OCc2ccccc2)c1)Nc1ccc2c(c1)C(=O)NC2=O, Cc1cc(C)cc(SCC(=O)Nc2ccc3c(c2)C(=O)NC3=O)c1, O=C(CSc1ccc(F)c(Cl)c1)Nc1ccc2c(c1)C(=O)NC2=O, O=C(CSc1ccccc1F)Nc1ccc2c(c1)C(=O)NC2=O, O=C(CSc1ccccc1Cl)Nc1ccc2c(c1)C(=O)NC2=O, O=C(Cc1ccc2c(c1)OCO2)Nc1ccc2c(c1)C(=O)NC2=O, O=C(Cc1ccccc1F)Nc1ccc2c(c1)C(=O)NC2=O, Cc1ccc(NCC(=O)Nc2ccc3c(c2)C(=O)NC3=O)c(C)c1, O=C(Cc1ccc(F)cc1F)Nc1ccc2c(c1)C(=O)NC2=O, O=C(CSc1ccccc1)Nc1ccc2c(c1)C(=O)NC2=O, O=C(CSc1cccc(Cl)c1)Nc1ccc2c(c1)C(=O)NC2=O, COc1cccc(NCC(=O)Nc2ccc3c(c2)C(=O)NC3=O)c1, O=C(CNc1ccc(F)c(Cl)c1)Nc1ccc2c(c1)C(=O)NC2=O, Cc1ccccc1NCC(=O)Nc1ccc2c(c1)C(=O)NC2=O, O=C(CNc1cccc(Cl)c1)Nc1ccc2c(c1)C(=O)NC2=O, O=C(Cc1ccc(Cl)cc1)Nc1ccc2c(c1)C(=O)NC2=O, Cc1ccc(OCC(=O)Nc2ccc3c(c2)C(=O)NC3=O)cc1, O=C(CCc1ccccc1)Nc1ccc2c(c1)C(=O)NC2=O, O=C(CSc1cccc2ccccc12)Nc1ccc2c(c1)C(=O)NC2=O, O=C(Cc1cccc(F)c1)Nc1ccc2c(c1)C(=O)NC2=O, O=C(CNc1cccc2[nH]ccc12)Nc1ccc2c(c1)C(=O)NC2=O, O=C(Cc1cccc(C(F)(F)F)c1F)Nc1ccc2c(c1)C(=O)NC2=O, O=C(Cc1cccc(F)c1F)Nc1ccc2c(c1)C(=O)NC2=O, O=C(Cc1ccc(F)cc1)Nc1ccc2c(c1)C(=O)NC2=O, COc1cccc(CC(=O)Nc2ccc3c(c2)C(=O)NC3=O)c1, O=C(Cc1cccc(Cl)c1)Nc1ccc2c(c1)C(=O)NC2=O, O=C(Cc1cc(F)cc(F)c1F)Nc1ccc2c(c1)C(=O)NC2=O, O=C(COc1ccccc1)Nc1ccc2c(c1)C(=O)NC2=O, O=C(COc1ccc(Cl)cc1)Nc1ccc2c(c1)C(=O)NC2=O, O=C(CSc1ccc(F)cc1)Nc1ccc2c(c1)C(=O)NC2=O, O=C(CSc1cccc(O)c1)Nc1ccc2c(c1)C(=O)NC2=O, O=C(Cc1cccc(C(F)(F)F)c1)Nc1ccc2c(c1)C(=O)NC2=O, COc1ccc(CC(=O)Nc2ccc3c(c2)C(=O)NC3=O)cc1, O=C(CSc1ccc(F)cc1F)Nc1ccc2c(c1)C(=O)NC2=O, O=C(Cc1cc(F)ccc1F)Nc1ccc2c(c1)C(=O)NC2=O, O=C(CSc1cccc(Br)c1)Nc1ccc2c(c1)C(=O)NC2=O, Cc1cccc(NCC(=O)Nc2ccc3c(c2)C(=O)NC3=O)c1, CC(Oc1ccccc1)C(=O)Nc1ccc2c(c1)C(=O)NC2=O (stereo not given), O=C(Cc1cc(Cl)ccc1F)Nc1ccc2c(c1)C(=O)NC2=O, O=C(Cc1ccc(Cl)c(Cl)c1)Nc1ccc2c(c1)C(=O)NC2=O, O=C(CSc1ccccc1C(F)(F)F)Nc1ccc2c(c1)C(=O)NC2=O, O=C(CSc1ccc(Cl)c(Cl)c1)Nc1ccc2c(c1)C(=O)NC2=O, O=C(CNc1cccc(F)c1)Nc1ccc2c(c1)C(=O)NC2=O, COc1ccc(NCC(=O)Nc2ccc3c(c2)C(=O)NC3=O)cc1Cl, O=C(CSc1ccc(Cl)cc1Cl)Nc1ccc2c(c1)C(=O)NC2=O, O=C(Cc1cc(F)c(Cl)cc1Cl)Nc1ccc2c(c1)C(=O)NC2=O
